target: T1, human 11βHSD1 enzyme (Homo sapiens, UniProt P28845); experiment: 11βHSD1 cortisone to cortisol conversion, competitive HTRF assay; format: biochemical; conditions: human 11-βHSD; test concentration of 30 μM of compound
T1 construct: baculovirus expressed N terminal 6-His tagged full length human 11βHSD1 enzyme; 6-His (N); made in house
Outline: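 Enzyme was baculovirus-expressed, N-terminal 6-His-tagged full-length human 11βHSD1, purified on a copper chelate column. Compounds were added in buffer containing 1% DMSO at 10-fold final concentration.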

T1 sequence (P28845 whole entry): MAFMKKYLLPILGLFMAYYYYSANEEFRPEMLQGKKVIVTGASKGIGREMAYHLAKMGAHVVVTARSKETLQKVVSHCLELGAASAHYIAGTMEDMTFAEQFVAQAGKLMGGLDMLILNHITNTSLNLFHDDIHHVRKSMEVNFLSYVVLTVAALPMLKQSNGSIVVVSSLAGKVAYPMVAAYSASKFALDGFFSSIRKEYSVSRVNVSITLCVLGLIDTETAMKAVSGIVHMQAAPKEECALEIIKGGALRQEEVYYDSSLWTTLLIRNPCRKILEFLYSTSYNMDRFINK

| inhibition at 30 µM [%] | Structure (SMILES) |
| --- | --- |
| 98.1 | O=C(N[C@H]1C2CC3CC1C[C@@](O)(C3)C2)c1cnc(N2CCS(=O)(=O)CC2)nc1C1CCCC1 [Example 116, 4-Cyclopentyl-2-(1,1-dioxo-1,4-thiazinan-4-yl)-N-[(2r,5s)-5-hydroxyadamantan-2-yl]pyrimidine-5-carboxamide] |
| 97.4 | COc1ncc(C(=O)N[C@H]2C3CC4CC2C[C@@](O)(C4)C3)c(C2CCCC2)n1 [Example 117, 4-cyclopentyl-N-[(2r,5s)-5-hydroxyadamantan-2-yl]-2-methoxypyrimidine-5-carboxamide] |
| 93.7 | CNc1ncc(C(=O)N[C@H]2C3CC4CC2C[C@@](O)(C4)C3)c(C2CCCC2)n1 [Example 118, 4-cyclopentyl-N-[(2r,5s)-5-hydroxyadamantan-2-yl]-2-methylaminopyrimidine-5-carboxamide] |
| 101 | O=C(N[C@H]1C2CC3CC1C[C@@](O)(C3)C2)c1cnc(N2C[C@@H]3C[C@H]2CO3)nc1C1CCCC1 [Example 120, 4-cyclopentyl-N-[(2r,5s)-5-hydroxyadamantan-2-yl]-2-[(1S,4S)-2-oxa-5-azabicyclo[2.2.1]heptan-5-yl]pyrimidine-5-carboxamide] |
| 104 | CC(C)Nc1ncc(C(=O)N[C@H]2C3CC4CC2C[C@@](O)(C4)C3)c(C2CCCC2)n1 [Example 121, 4-cyclopentyl-N-[(2r,5s)-5-hydroxyadamantan-2-yl]-2-(propan-2-ylamino)pyrimidine-5-carboxamide] |
| 97.5 | O=C(N[C@H]1C2CC3CC1C[C@@](O)(C3)C2)c1cnc(NC2CC2)nc1C1CCCC1 [Example 122, 4-cyclopentyl-2-(cyclopropylamino)-N-[(2r,5s)-5-hydroxyadamantan-2-yl]pyrimidine-5-carboxamide] |
| 99.1 | C[C@H]1COCCN1c1ncc(C(=O)N[C@H]2C3CC4CC2C[C@@](O)(C4)C3)c(C2CCCC2)n1 [Example 123] |
| 95 | COCCN1CCN(c2ncc(C(=O)N[C@H]3C4CC5CC3C[C@](O)(C5)C4)c(C3CCCC3)n2)CC1 [Example 125, 4-cyclopentyl-N-[(2r,5s)-5-hydroxyadamantan-2-yl]-2-[4-(2-methoxyethyl)piperazin-1-yl]pyrimidine-5-carboxamide] |
| 96.6 | CC(=O)N1CCN(c2ncc(C(=O)N[C@H]3C4CC5CC3C[C@@](O)(C5)C4)c(C3CCCC3)n2)CC1 [Example 126, 2-(4-acetylpiperazin-1-yl)-4-cyclopentyl-N-[(2r,5s)-5-hydroxyadamantan-2-yl]pyrimidine-5-carboxamide] |
| 103 | CC(C)N1CCN(c2ncc(C(=O)N[C@H]3C4CC5CC3C[C@@](O)(C5)C4)c(C3CCCC3)n2)CC1=O [Example 127, 4-cyclopentyl-N-[(2r,5s)-5-hydroxyadamantan-2-yl]-2-(3-oxo-4-propan-2-ylpiperazin-1-yl)pyrimidine-5-carboxamide] |
| 99.1 | CN1CCN(c2ncc(C(=O)N[C@H]3C4CC5CC3C[C@@](O)(C5)C4)c(C3CCCC3)n2)CC1=O [Example 128, 4-cyclopentyl-N-[(2r,5s)-5-hydroxyadamantan-2-yl]-2-(4-methyl-3-oxopiperazin-1-yl)pyrimidine-5-carboxamide] |
| 95.5 | O=C(N[C@H]1C2CC3CC1C[C@](O)(C3)C2)c1cnc(NC2CCC2)nc1C1CCCC1 [Example 129, 4-cyclopentyl-2-(cyclobutylamino)-N-[(2r,5s)-5-hydroxyadamantan-2-yl]pyrimidine-5-carboxamide] |
| 96.1 | O=C(N[C@H]1C2CC3CC1C[C@](O)(C3)C2)c1cnc(NC2CCCC2)nc1C1CCCC1 [Example 130, 4-cyclopentyl-2-(cyclopentylamino)-N-[(2r,5s)-5-hydroxyadamantan-2-yl]pyrimidine-5-carboxamide] |
| 101 | O=C(N[C@H]1C2CC3CC1C[C@@](O)(C3)C2)c1cnc(N2CCC2)nc1C1CCCC1 [Example 131, 2-(azetidin-1-yl)-4-cyclopentyl-N-[(2r,5s)-5-hydroxyadamantan-2-yl]pyrimidine-5-carboxamide] |
| 94 | CN(C)c1ncc(C(=O)N[C@H]2C3CC4CC2C[C@@](O)(C4)C3)c(C2CCCC2)n1 [Example 133, 4-cyclopentyl-2-dimethylamino-N-[(2r,5s)-5-hydroxyadamantan-2-yl]pyrimidine-5-carboxamide] |
| 94.1 | C[C@@H]1CN(c2ncc(C(=O)N[C@H]3C4CC5CC3C[C@](O)(C5)C4)c(C3CCCC3)n2)C[C@H](C)N1 [Example 134, 4-cyclopentyl-2-[(3S,5R)-3,5-dimethylpiperazin-1-yl]-N-[(2r,5s)-5-hydroxyadamantan-2-yl]pyrimidine-5-carboxamide] |
| 100 | Nc1ncc(C(=O)N[C@H]2C3CC4CC2C[C@@](O)(C4)C3)c(C2CCCC2)n1 [Example 135, 2-amino-4-cyclopentyl-N-[(2r,5s)-5-hydroxyadamantan-2-yl]pyrimidine-5-carboxamide] |

| inhibition at 30 µM [%] | Structure (SMILES) |
| --- | --- |
| 105 | O=C(N[C@H]1C2CC3CC1C[C@@](O)(C3)C2)c1cnc(N2CCOCC2CO)nc1C1CCCC1 (stereo partly shown) [Example 141, 4-cyclopentyl-N-[(2r,5s)-5-hydroxyadamantan-2-yl]-2-[3-(hydroxymethyl)morpholin-4-yl]pyrimidine-5-carboxamide] |
| 99.7 | O=C(N[C@H]1C2CC3CC1C[C@@](O)(C3)C2)c1cnc(N[C@@H]2CCOC2)nc1C1CCCC1 [Example 142, 4-cyclopentyl-N-[(2r,5s)-5-hydroxyadamantan-2-yl]-2-[[(3R)-oxolan-3-yl]amino]pyrimidine-5-carboxamide] |
| 95 | CS(=O)(=O)N1CCN(c2ncc(C(=O)N[C@H]3C4CC5CC3C[C@@](O)(C5)C4)c(C3CCCC3)n2)CC1 [Example 143, 4-cyclopentyl-N-[(2r,5s)-5-hydroxyadamantan-2-yl]-2-(4-methylsulfonylpiperazin-1-yl)pyrimidine-5-carboxamide] |
| 98.8 | O=C(N[C@H]1C2CC3CC1C[C@@](O)(C3)C2)c1cnc(N[C@H]2CCOC2)nc1C1CCCC1 [Example 144, 4-cyclopentyl-N-[(2r,5s)-5-hydroxyadamantan-2-yl]-2-[[(3S)-oxolan-3-yl]amino]pyrimidine-5-carboxamide] |
| 92.9 | O=C(N[C@H]1C2CC3CC1C[C@@](O)(C3)C2)c1cnc(N2CCOC(CO)C2)nc1C1CCCC1 (stereo partly shown) [Example 145, 4-cyclopentyl-N-[(2r,Ss)-5-hydroxyadamantan-2-yl]-2-[2-(hydroxymethyl)morpholin-4-yl]pyrimidine-5-carboxamide] |
| 93.4 | O=C(N[C@H]1C2CC3CC1C[C@@](O)(C3)C2)c1cnc(N2CC(F)(F)C2)nc1C1CCCC1 [Example 146, 4-cyclopentyl-2-(3,3-difluoroazetidin-1-yl)-N-[(2r,5s)-5-hydroxyadamantan-2-yl]pyrimidine-5-carboxamide] |
| 103 | O=C(N[C@H]1C2CC3CC1C[C@@](O)(C3)C2)c1cnc(NCCN2CCOCC2)nc1C1CCCC1 [Example 147, 4-cyclopentyl-N-[(2r,5s)-5-hydroxytricyclo[3.3.1.13,7]dec-2-yl]-2-[(2-morpholin-4-ylethyl)amino]pyrimidine-5-carboxamide] |
| 102 | C[C@@H]1CN(CCNc2ncc(C(=O)N[C@H]3C4CC5CC3C[C@@](O)(C5)C4)c(C3CCCC3)n2)C[C@H](C)O1 [Example 148, 4-cyclopentyl-2-({2-[(2R,6S)-2,6-dimethylmorpholin-4-yl]ethyl}amino)-N-[(2r,5s)-5-hydroxytricyclo[3.3.1.13,7]dec-2-yl]pyrimidine-5-carboxamide] |
| 92 | O=C(N[C@H]1C2CC3CC1C[C@@](O)(C3)C2)c1cnc(C2CC2)nc1C1CCCC1 [Example 149, 4-Cyclopentyl-2-cyclopropyl-N-[(2r,5s)-5-hydroxyadamantan-2-yl]pyrimidine-5-carboxamide] |
| 96 | CC(C)c1ncc(C(=O)N[C@H]2C3CC4CC2C[C@@](O)(C4)C3)c(C2CCCC2)n1 [Example 150, 4-Cyclopentyl-N-[(2r,5s)-5-hydroxyadamantan-2-yl]-2-propan-2-ylpyrimidine-5-carboxamide] |
| 101 | NC1(c2ncc(C(=O)N[C@H]3C4CC5CC3C[C@@](O)(C5)C4)c(C3CCCC3)n2)CC1 [Example 151, 2-(1-Aminocyclopropyl)-4-cyclopentyl-N-[(2r,5s)-5-hydroxyadamantan-2-yl]pyrimidine-5-carboxamide] |
| 97.8 | NCc1ncc(C(=O)N[C@H]2C3CC4CC2C[C@@](O)(C4)C3)c(C2CCCC2)n1 [Example 152, 2-(Aminomethyl)-4-cyclopentyl-N-[(2r,5s)-5-hydroxyadamantan-2-yl]pyrimidine-5-carboxamide] |
| 91.7 | Cc1ncc(C(=O)N[C@H]2C3CC4CC2C[C@@](O)(C4)C3)c(C2CC(F)(F)C2)n1 [Example 153, 4-(3,3-difluorocyclobutyl)-N-[(2s,5r)-5-hydroxyadamantan-2-yl]-2-methylpyrimidine-5-carboxamide] |
| 88 | CNc1ncc(C(=O)N[C@H]2C3CC4CC2C[C@@](O)(C4)C3)c(C2CC(F)(F)C2)n1 [Example 154, 4-(3,3-difluorocyclobutyl)-N-[(2r,5s)-5-hydroxyadamantan-2-yl]-2-methylaminopyrimidine-5-carboxamide] |
| 92.6 | O=C(N[C@H]1C2CC3CC1C[C@@](O)(C3)C2)c1cnc(NC2CC2)nc1C1CC(F)(F)C1 [Example 155, 2-(cyclopropylamino)-4-(3,3-difluorocyclobutyl)-N-[(2r,5s)-5-hydroxyadamantan-2-yl]pyrimidine-5-carboxamide] |
| 65.5 | C[C@@H]1CN(c2ncc(C(=O)N[C@H]3C4CC5CC3C[C@@](O)(C5)C4)c(C3CC(F)(F)C3)n2)C[C@H](C)O1 [Example 156, 4-(3,3-difluorocyclobutyl)-2-[(2S,6R)-2,6-dimethylmorpholin-4-yl]-N-[(2r,5s)-5-hydroxyadamantan-2-yl]pyrimidine-5-carboxamide] |
| 87.1 | O=C(N[C@H]1C2CC3CC1C[C@@](O)(C3)C2)c1cnc(OC2CCC2)nc1C1CC(F)(F)C1 [Example 157] |
